Patent US20260315410A1, “COMBINATION FOR ENHANCING BONE GROWTH AND/OR BONE STRENGTH” (SOCIÉTÉ DES PRODUITS NESTLÉ S.A., priority 2023, published 2026)

Tests used:
[1] = tested on: osteocalcin; assay: Osteocalcin mRNA levels (qPCR) in pre-osteoblastic cell line MC3T3-E1 subclone 4; format: cell-based; conditions: 21 days of differentiation, without ascorbic acid; MK-7 3 μM, VitD 1 nM, VitA 100 nM (FIG. 1B)
Source text: (§1) The pre-osteoblastic cell line MC3T3-E1 subclone 4 (CRL-2593) was purchased from ATCC (Manassas; Virginia, USA). Cells were maintained in growth medium (GM) composed of ascorbic acid-free aMEM (ThermoFisher Scientific), supplemented with 10% fetal calf serum (FCS, ThermoFisher Scientific) and 1% penicillin/streptomycin. All culture media were refreshed every 2-3 days. Cells were passaged with trypsin/EDTA solution at less than 80% confluence. To induce differentiation into osteoblasts, cells were seeded at 5×10^4 cells/cm^2 and grown to confluency in GM for 24 h. Then, the medium was switched to differentiation medium (DM) composed of GM supplemented with 10 mM β-glycerophosphate and treatment solutions of interest. Ascorbic acid 50 μg/ml was also added to the DM depending on the experiment.
MC3T3-E1 subclone 4 cells were differentiated for 21 days (in DM without ascorbic acid except for the positive control) or 28 days (in DM containing ascorbic acid). Cells were then collected for gene expression analysis. […] RNA concentrations were measured using the DropSense96 (TRINEAN, Gentbrugge, Belgium).
CDNAs were synthetized using High-Capacity cDNA Reverse Transcription Kit (AppliedBiosystems; Waltham, Massachusetts, USA) according to the manufacturer's instructions. […] The relative gene expression was evaluated via the 2^-ΔCt method.

[2] = tested on: pre-osteoblastic cell line MC3T3-E1 subclone 4; assay: Osteoblast alkaline phosphatase (ALP) activity; format: cell-based; conditions: 7 days of differentiation, without ascorbic acid; MK-7 3 μM, VitD 1 nM, VitA 100 nM (FIG. 1A)
Source text: as §1
MC3T3-E1 subclone 4 cells were differentiated for 7 days without ascorbic acid, except for the positive control, and with the following treatment solutions: a mix composed of 3μM of vit.K2 (menaquinone-7), 100 nM of vit.A (all-trans-retinoic acid) and 1 nM of vit.D (1a,25-Dihydroxyvitamin D3); a mix called “SCFA20” composed of 15 μM of sodium acetate, 4 μM of sodium propionate and 1 μM of sodium butyrate; a mix called “SCFA50” composed of 37.5 μM of sodium acetate, 10 μM of sodium propionate and 2.5 μM of sodium butyrate; a mix called “SCFA60” composed of 45 μM of sodium acetate, 12 μM of sodium propionate and 3 μM of sodium butyrate. The vitamin mix was also combined to the 3 different combinations of short-chain fatty acids (SCFA).
After 7 days of differentiation, cells were then collected for alkaline phosphatase (ALP) activity measurement as described previously with minor modifications. […] Enzymatic reaction was monitored at 405 nm after 4-Nitrophenyl phosphate disodium salt hexahydrate addition. Michaelis-Menten kinetics were evaluated at 30° C. for 30 min. […] The activity value was normalized by protein content measured via the Pierce BCA Protein Assay Kit (ThermoFisher Scientific) according to the manufacturer's instructions.

Structure (SMILES)	Osteocalcin mRNA levels [1]	ALP activity (marker of osteoblast differentiation) [2]
CC1=C(/C=C/C(C)=C/C=C/C(C)=C/C(=O)O)C(C)(C)CCC1 [vitamin A, all-trans-retinoic acid]	no significant effect	significant effect
C=C1/C(=C\C=C2/CCC[C@]3(C)[C@@H]([C@H](C)CCCC(C)(C)O)CC[C@@H]23)C[C@@H](O)C[C@@H]1O [vitamin D, 1α,25-Dihydroxyvitamin D3]	no significant effect	significant effect
CC(C)=CCC/C(C)=C/CC/C(C)=C/CC/C(C)=C/CC/C(C)=C/CC/C(C)=C/CC/C(C)=C/CC1=C(C)C(=O)c2ccccc2C1=O [vitamin K2, menaquinone-7]		no significant effect
